According to patent US20140212493A1, “Highly Bioavailable Composition Containing Eprosartan - Poloxamer Complex or 2-(7-Chloro-5-Methyl-4-Oxo-3-Phenyl-4,5-Dihydro-3H-Pyridazine (4,5-b)Indol-1-yl)-N,N-Dimethylacetamide - Poloxamer Complex” (BVM Holding Co., priority 2003, published 2014):
Structures can show the parent of a compound that is named as a salt.

Columns and labels:
[1] = Dissolution of EPM and EPM-poloxamer complexes, USP apparatus II, SGF; format: physicochemical; details: equivalent to 400 mg dose, SGF without pepsin, 37° C., 25 rpm
Method: (§1) The dissolution rate of the association complex may be carried out using a suitable solvent such as 0.1 N HCl purified water, or simulated gastric fluid, as dissolution medium. The testing is conducted under conditions intended to simulate ingestions at about 37° C. and from about 25 to about 75 rpm. The dissolution may be tested using any method known in the art such as USP apparatus I (a basket apparatus) or USP apparatus II (a paddle apparatus) (USP 27/NF 22, 2004, <711>, page 2303). Samples of the solution are taken at preselected intervals such as at every fifteen minutes up to one hour.
Lutrol F-68, 1.0 gm, and EPM, 1.0 gm, are mixed in a jacketed vessel (KG5) heated to 53° C. while mixing for about 2 hrs. The resulting complex, in the form of free flowing granules, thus formed is allowed cool to room temperature and sieved through a 40 mesh screen. The dissolution of the complex equivalent to the 400 mg dose is determined using USP apparatus II, 900 ml of SGF (simulated gastric fluid without pepsin) as the dissolution medium at 37° C. and 25 rpm.
The dissolution of the complex equivalent to a 400 mg dose is determined using USP apparatus II, in SGF as the dissolution medium at 37° C. and 25 rpm.

[2] = Dissolution of NZ and NZ-poloxamer complex, USP apparatus II, purified water; format: physicochemical; details: equivalent to 20mg drug, 1000 ml purified water, 37° C., 75 rpm
Method: as §1
Lutrol F-68 and NZ, 250 mg are mixed in a jacketed vessel (KG 5) and heated to 53° C. while mixing for about 2 hours. The resulting complex thus formed is allowed to cool to room temperature and sieved through a 40 mesh screen. The dissolution of the complex equivalent to 20mg drug is determined using USP apparatus II, 1000 ml of purified water as the dissolution medium at 37° C. and 75 rpm.

Compound	% DISSOLVED ([1]; 15 minutes) [%]	% DISSOLVED ([1]; 30 minutes) [%]	% DISSOLVED ([1]; 45 minutes) [%]	% DISSOLVED ([1]; 60 minutes) [%]	% DISSOLVED ([2]; 15 minutes) [%]	% DISSOLVED ([2]; 30 minutes) [%]	% DISSOLVED ([2]; 45 minutes) [%]	% DISSOLVED ([2]; 60 minutes) [%]
CCCCc1ncc(/C=C(\Cc2cccs2)C(=O)O)n1Cc1ccc(C(=O)O)cc1 [EPM, eprosartan mesylate]	38.7	51.9	61.3	61.7				
CN(C)C(=O)Cc1nn(-c2ccccc2)c(=O)c2c1c1ccc(Cl)cc1n2C [NZ, 2-(7-chloro-5-methyl-4-oxo-3-phenyl-4,5 dihydro-3H-pyridazino (4,5-b)-indol-1-yl)-N,N-dimethylacetamide]					0.65	1.90	2.53	3.14
